Measured values as given in the supplement of paper PMC11061612.

Legend:
[1] = test system: VMRC-RCZ (Kidney Carcinoma); assay: Bliss excess, mean over the matrix (fraction); higher = more synergy
How it was run: (§1)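 Bliss excess equals the observed combination effect minus the expected value EA + EB − EA·EB, where EA and EB are the effects of each agent alone. Combination Emax is the second-highest inhibition within the matrix. Inhibition was scaled from CellTiter-Glo 2.0 luminescence, with 0 set by vehicle wells and 1 by blank wells, after 72 hours of two-drug dosing of cells plated in 1536-well plates.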

[2] = test system: NCI-H520 (Squamous Cell Lung Carcinoma); assay: as above
How it was run: as §1

[3] = test system: KP-3 (Pancreatic Carcinoma); assay: as above
How it was run: as §1

[4] = test system: OCI-AML3 (Acute Myeloid Leukemia); assay: as above
How it was run: as §1

[5] = test system: DMS-114 (Small Cell Lung Carcinoma); assay: as above
How it was run: as §1

[6] = test system: KU812 (Chronic Myelogenous Leukemia); assay: as above
How it was run: as §1

[7] = test system: MN-60 (B-Lymphoblastic Leukemia); assay: as above
How it was run: as §1

[8] = test system: NCI-H3122 (Lung Adenocarcinoma); assay: as above
How it was run: as §1

[9] = test system: COR-L279 (Small Cell Lung Carcinoma); assay: as above
How it was run: as §1

[10] = test system: MOG-G-CCM (Low Grade Glioma); assay: as above
How it was run: as §1

[11] = test system: T-T (Esophageal Squamous Cell Carcinoma); assay: as above
How it was run: as §1

[12] = test system: ST486 (Burkitt's Lymphoma); assay: as above
How it was run: as §1

M059J (Glioblastoma) [13] = assay: as above
How it was run: as §1

[14] = test system: SK-GT-4 (Esophageal Adenocarcinoma); assay: as above
How it was run: as §1

[15] = test system: KYSE-270 (Esophageal Squamous Cell Carcinoma); assay: as above
How it was run: as §1

[16] = test system: NCI-H526 (Small Cell Lung Carcinoma); assay: as above
How it was run: as §1

NCI-H2731 (Mesothelioma) [17] = assay: as above
How it was run: as §1

[18] = test system: NCI-H929 (Plasma Cell Myeloma); assay: as above
How it was run: as §1

[19] = test system: NCCIT (Other Solid Carcinomas); assay: as above
How it was run: as §1

[20] = test system: CW-2 (Colorectal Carcinoma); assay: as above
How it was run: as §1

SJSA-1 (Osteosarcoma) [21] = assay: as above
How it was run: as §1

[22] = test system: VMRC-RCZ (Kidney Carcinoma); assay: combination Emax (second highest fraction inhibited in the dose matrix, 72 h); higher = more inhibition; extreme values may be limits of the assay
How it was run: as §1

[23] = test system: NCI-H520 (Squamous Cell Lung Carcinoma); assay: as above
How it was run: as §1

[24] = test system: KP-3 (Pancreatic Carcinoma); assay: as above
How it was run: as §1

[25] = test system: OCI-AML3 (Acute Myeloid Leukemia); assay: as above
How it was run: as §1

[26] = test system: DMS-114 (Small Cell Lung Carcinoma); assay: as above
How it was run: as §1

[27] = test system: KU812 (Chronic Myelogenous Leukemia); assay: as above
How it was run: as §1

[28] = test system: MN-60 (B-Lymphoblastic Leukemia); assay: as above
How it was run: as §1

[29] = test system: NCI-H3122 (Lung Adenocarcinoma); assay: as above
How it was run: as §1

[30] = test system: COR-L279 (Small Cell Lung Carcinoma); assay: as above
How it was run: as §1

[31] = test system: MOG-G-CCM (Low Grade Glioma); assay: as above
How it was run: as §1

[32] = test system: T-T (Esophageal Squamous Cell Carcinoma); assay: as above
How it was run: as §1

[33] = test system: ST486 (Burkitt's Lymphoma); assay: as above
How it was run: as §1

M059J (Glioblastoma) [34] = assay: as above
How it was run: as §1

[35] = test system: SK-GT-4 (Esophageal Adenocarcinoma); assay: as above
How it was run: as §1

[36] = test system: KYSE-270 (Esophageal Squamous Cell Carcinoma); assay: as above
How it was run: as §1

[37] = test system: NCI-H526 (Small Cell Lung Carcinoma); assay: as above
How it was run: as §1

NCI-H2731 (Mesothelioma) [38] = assay: as above
How it was run: as §1

[39] = test system: NCI-H929 (Plasma Cell Myeloma); assay: as above
How it was run: as §1

[40] = test system: NCCIT (Other Solid Carcinomas); assay: as above
How it was run: as §1

[41] = test system: CW-2 (Colorectal Carcinoma); assay: as above
How it was run: as §1

SJSA-1 (Osteosarcoma) [42] = assay: as above
How it was run: as §1

## O=C(c1cc(Cc2n[nH]c(=O)c3ccccc23)ccc1F)N1CCN(C(=O)C2CC2)CC1 [Olaparib] + Cc1c2c(nn1C)CSCc1cc(n(C)n1)CSc1cc(c3ccccc3c1)OCCCc1c(C(=O)O)n(C)c3c-2c(Cl)ccc13 [AZD5991] (first compound max 10 µM, 7x7, partner max 1 µM)
[1]
  Bliss excess: -0.049
[2]
  Bliss excess: -0.0289
[3]
  Bliss excess: -0.0576
[4]
  Bliss excess: 0.0224
[5]
  Bliss excess: 0.0106
[6]
  Bliss excess: -0.0111
[7]
  Bliss excess: -0.0496
[8]
  Bliss excess: -0.0156
[9]
  Bliss excess: 0.0494
[10]
  Bliss excess: -0.0519
[11]
  Bliss excess: -0.0217
[12]
  Bliss excess: 0.0593
M059J (Glioblastoma) [13]
  Bliss excess: 0.0008
[14]
  Bliss excess: -0.061
[15]
  Bliss excess: -0.0303
[16]
  Bliss excess: 0.0251
NCI-H2731 (Mesothelioma) [17]
  Bliss excess: -0.0452
[18]
  Bliss excess: -0.0215
[19]
  Bliss excess: 0.0176
[20]
  Bliss excess: -0.03
SJSA-1 (Osteosarcoma) [21]
  Bliss excess: -0.0401
[22]
  combination Emax: 0.0573
[23]
  combination Emax: 0.104
[24]
  combination Emax: 0.028
[25]
  combination Emax: 0.98
[26]
  combination Emax: 0.55
[27]
  combination Emax: 0.784
[28]
  combination Emax: 0.22
[29]
  combination Emax: 0.315
[30]
  combination Emax: 0.961
[31]
  combination Emax: 0.222
[32]
  combination Emax: 0.801
[33]
  combination Emax: 0.558
M059J (Glioblastoma) [34]
  combination Emax: 0.254
[35]
  combination Emax: 0.0608
[36]
  combination Emax: 0.625
[37]
  combination Emax: 0.805
NCI-H2731 (Mesothelioma) [38]
  combination Emax: 0.0516
[39]
  combination Emax: 1
[40]
  combination Emax: 0.527
[41]
  combination Emax: 0.101
SJSA-1 (Osteosarcoma) [42]
  combination Emax: 0.0831

## Cc1c2c(nn1C)CSCc1cc(n(C)n1)CSc1cc(c3ccccc3c1)OCCCc1c(C(=O)O)n(C)c3c-2c(Cl)ccc13 [AZD5991] + CS(=O)(=O)CCNCc1ccc(-c2ccc3ncnc(Nc4ccc(OCc5cccc(F)c5)c(Cl)c4)c3c2)o1 [Lapatinib] (first compound max 1 µM, 7x7, partner max 10 µM)
[1]
  Bliss excess: -0.0195
[2]
  Bliss excess: 0.0111
[3]
  Bliss excess: -0.003
[4]
  Bliss excess: -0.0516
[5]
  Bliss excess: -0.0358
[6]
  Bliss excess: -0.0005
[7]
  Bliss excess: -0.0584
[8]
  Bliss excess: -0.0164
[9]
  Bliss excess: -0.0053
[10]
  Bliss excess: -0.0322
[11]
  Bliss excess: 0.0522
[12]
  Bliss excess: -0.0655
M059J (Glioblastoma) [13]
  Bliss excess: -0.0103
[14]
  Bliss excess: 0.0391
[15]
  Bliss excess: 0.016
[16]
  Bliss excess: 0.0226
NCI-H2731 (Mesothelioma) [17]
  Bliss excess: 0.0234
[18]
  Bliss excess: -0.0113
[19]
  Bliss excess: -0.0119
[20]
  Bliss excess: 0.0142
SJSA-1 (Osteosarcoma) [21]
  Bliss excess: -0.0115
[22]
  combination Emax: 0.209
[23]
  combination Emax: 0.435
[24]
  combination Emax: 0.303
[25]
  combination Emax: 0.985
[26]
  combination Emax: 0.608
[27]
  combination Emax: 0.867
[28]
  combination Emax: 0.158
[29]
  combination Emax: 0.392
[30]
  combination Emax: 0.903
[31]
  combination Emax: 0.358
[32]
  combination Emax: 0.988
[33]
  combination Emax: 0.758
M059J (Glioblastoma) [34]
  combination Emax: 0.456
[35]
  combination Emax: 0.379
[36]
  combination Emax: 0.959
[37]
  combination Emax: 0.469
NCI-H2731 (Mesothelioma) [38]
  combination Emax: 0.44
[39]
  combination Emax: 1
[40]
  combination Emax: 0.635
[41]
  combination Emax: 0.531
SJSA-1 (Osteosarcoma) [42]
  combination Emax: 0.196

## Cc1c2c(nn1C)CSCc1cc(n(C)n1)CSc1cc(c3ccccc3c1)OCCCc1c(C(=O)O)n(C)c3c-2c(Cl)ccc13 [AZD5991] + Nc1ccn([C@@H]2O[C@H](CO)[C@@H](O)C2(F)F)c(=O)n1 [Gemcitabine] (first compound max 1 µM, 7x7, partner max 0.3 µM)
[1]
  Bliss excess: -0.001
[2]
  Bliss excess: -0.0389
[4]
  Bliss excess: 0.0245
[5]
  Bliss excess: 0.07
[6]
  Bliss excess: -0.0709
[7]
  Bliss excess: -0.0611
[8]
  Bliss excess: 0.0092
[9]
  Bliss excess: -0.012
[10]
  Bliss excess: -0.0059
[11]
  Bliss excess: 0.058
[12]
  Bliss excess: 0.0089
M059J (Glioblastoma) [13]
  Bliss excess: -0.0325
[14]
  Bliss excess: -0.042
[15]
  Bliss excess: -0.0129
[16]
  Bliss excess: 0.0249
NCI-H2731 (Mesothelioma) [17]
  Bliss excess: -0.0359
[18]
  Bliss excess: 0.0087
[19]
  Bliss excess: -0.0617
[20]
  Bliss excess: -0.0677
SJSA-1 (Osteosarcoma) [21]
  Bliss excess: -0.0319
[22]
  combination Emax: 0.392
[23]
  combination Emax: 0.811
[25]
  combination Emax: 1
[26]
  combination Emax: 0.908
[27]
  combination Emax: 0.842
[28]
  combination Emax: 0.518
[29]
  combination Emax: 0.922
[30]
  combination Emax: 0.975
[31]
  combination Emax: 0.523
[32]
  combination Emax: 0.929
[33]
  combination Emax: 0.904
M059J (Glioblastoma) [34]
  combination Emax: 0.681
[35]
  combination Emax: 0.31
[36]
  combination Emax: 0.965
[37]
  combination Emax: 0.914
NCI-H2731 (Mesothelioma) [38]
  combination Emax: 0.358
[39]
  combination Emax: 1
[40]
  combination Emax: 0.725
[41]
  combination Emax: 0.613
SJSA-1 (Osteosarcoma) [42]
  combination Emax: 0.725
